Assay results taken from patent US20140038920A1, “TFEB PHOSPHORYLATION INHIBITORS AND USES THEREOF” (FONDAZIONE TELETHON, priority 2011, published 2014).

Experiments:
TFEB = TFEB nuclear localization in starved HeLa cells overexpressing TFEB, re-stimulated with media plus supplements or inhibitors (nuclear fractionation, Flag blot, immunofluorescence); format: cell-based; settings: starved cells stimulated with normal medium supplemented with kinase inhibitor (FIG. 2g, 11b)
Excerpt: (A) Scatter Plot graphs displaying the logarithmic value of the fold change differences in the relative expression levels of 51 autophagy-related genes in HeLa cells cultured in different conditions. X-axis=control group. Y-axis=treated group. Circles represent genes with increased (red) or decreased (green) fold change. Comparisons were as indicated. (B) Chromatin immunoprecipitation (ChIP) analysis. […] Values were normalized to the input and plotted as relative enrichment over a mock control. Experiments were performed in triplicate. (C) qPCR analysis of TFEB-target gene expression in normal, starved, and in TFEB-siRNA starved cells. GAPDH and HPRT represents housekeeping genes, while ATG10, ATG9A and ATG4D represent control genes (non-TFEB target genes). (D-F) HeLa cells stably overexpressing TFEB were left untreated or nutrient starved for 4 h. (D) Five fields containing 50-100 cells/each were analyzed for TFEB nuclear localization. […] (E) Cells were subjected to nuclear/cytosolic fractionation and blotted with Flag antibody. H3 and tubulin were used as nuclear and cytosolic markers, respectively. (F) Nuclear fractions were blotted with Flag and H3 (loading control) antibodies. (G) Western blot analysis of Flag, tubulin and H3 in nuclear extracts prepared from normal, starved and starved/stimulated with normal media cells for 1 h (normal) or pretreated with AP-2 (AKT inhibitor), Rapamycin (mTOR inhibitor) and U0126 (MEK inhibitor) 1 h prior to media stimulation. Total extracts were used to verify the efficiency of the inhibitors. […] Starvation was performed where indicated. (All error bars represent standard deviations. T-test (unpaired) p value (*)<0.05, (**)<0.01)
Cytosolic and nuclear fractions were subjected to Flag immunoblotting. […] Error bars represent standard deviations.
Cells were seeded at 50% of confluence in 6 well dishes and serum starved overnight (ON). Normal medium was added the following day either in presence of DMSO or kinase inhibitors. Subcellular fractionation was carried out as previously reported.
To identify the mechanism of starvation-induced activation of TFEB, the applicants analyzed its subcellular localization and post-translational modifications in starved cells.

TFEB S142 = TFEB S142 phosphorylation with p-S142 phospho-antibody in HeLa cells (FIG. 20A); format: cell-based; settings: starved cells supplemented with normal media with inhibitor
Procedure: FIG. 20 mTORC1 phosphorylates TFEB at serine 142 (S142). […] HeLa cells were treated as indicated and total and nuclear extracts were probed with a TFEB p-S142 phospho-antibody and with anti-FLAG antibody. (B) Schematic representation of TFEB protein structure with the predicted mTORC1 phosphorylation sites and their conservation among vertebrates. Numbering is according to human isoform 1. (C) Sequence conservation scores of the phosphorylation sites and quantitative agreement between mTOR consensus motif and the sequence around the phosphorylation sites of TFEB. (D) S142 and S211 regulate TFEB localization. Flag immunostaining of TFEB subcellular localization in HeLa cells expressing serine-to-alanine mutated versions of TFEB-3×Flag. Nuclei were stained with DAPI. Values are means of five fields containing at least 50 transfected cells. Student's t-test (unpaired) ***P<0.001. Scale bars represent […].
The mouse anti-TFEB monoclonal antibody was purchased from My Biosource catalogue No. MBS 120432. To generate anti-pS142 specific antibodies, rabbits were immunized with the following peptide coupled to KLH: AGNSAPN{pSer}[…]. Following the fourth immunization, rabbits were sacrificed and the serum was collected. Non-phosphospecific antibodies were depleted from the serum by circulation through a column containing the nonphosphorylated antigene. […]

ERK = assay: p-ERK levels in primary hepatocytes (FIG. 21A); format: cell-based, mouse; settings: primary hepatocytes treated overnight
Excerpt: Subsequently, cells were lysed and protein extracts were immunoblotted with the indicated antibodies. […] Quantitative PCR (qPCR) of TFEB target genes in primary hepatocytes from control (flox/flox) and Tcfeb−/− (flox/flox; alb-Cre) mice. […] The expression levels are shown as % increased expression of the treated versus the corresponding untreated samples. Values represent means±s.d. of three independent hepatocyte preparations (three mice/genotype). Student's t-test (two tailed) *P-value ≦0.05.

[1] = tested on: glycosaminoglycan (GAG) accumulation in MSD NSCs; assay: Alcian blue staining of GAGs in differentiated NSCs from MSD mice (FIG. 22); format: cell-based, mouse; settings: glia-differentiated MSD NSCs, 10 nM, 24 hours, versus DMSO
Procedure: After 24 hours, the GAG content was determined by alcian blue (AB) staining. Both torins were able to reduce GAG staining in MSD treated cells as compared to DMSO treated cells.
Neuronal progenitor cells were isolated from cortices of WT and MSD pups (P0) by tissue homogenization using the neural tissue dissociation kit and separation using magnetic sorting of cells expressing the stem cell marker prominin-1 (Miltenyi Biotec Srl). Neuronal progenitor cells were maintained in ESGRO complete medium (Hyclone) in the presence of EGF and FGF2 growth factors (Prepotech). Where indicated, neural stem cells (NSCs) were differentiated by removing growth factors and incubate in ESGRO medium containing 2% of serum for at least 48 h.
Neuronal progenitor cells were isolated from cortices of WT and MSD pups (P0) by using standard protocols. Neuronal stem cells (NSCs) were fixed in Methacarn (60% Methanol; 10% Acetic Acid; 30% Chloroform) for 15 min at RT. After washing the cells were stained for 3 hours in 1% alcian blue pH 2.5, rinsed in 0.3% acetic acid and water and mounted in 100% for visualization.

Structure (SMILES) | TFEB nuclear localization (TFEB) | nutrient-induced S142 phosphorylation of TFEB (TFEB S142) | levels of p-ERK (ERK) | alcian blue-stained GAGs [1]
CO[C@H]1C[C@@H]2CC[C@@H](C)[C@@](O)(O2)C(=O)C(=O)N2CCCC[C@H]2C(=O)O[C@H]([C@H](C)C[C@@H]2CC[C@@H](O)[C@H](OC)C2)CC(=O)[C@H](C)/C=C(\C)[C@@H](O)[C@@H](OC)C(=O)[C@H](C)C[C@H](C)/C=C/C=C/C=C/1C [RAPAMYCIN] | no effect | did not | – | –
CCC(=O)N1CCN(c2ccc(-n3c(=O)ccc4cnc5ccc(-c6cnc7ccccc7c6)cc5c43)cc2C(F)(F)F)CC1 [TORIN 1] | – | clearly blunted nutrient-induced S142 phosphorylation | unaffected | striking reduction
